Source: patent publication US20240400542A1 (University of Virginia Patent Foundation, priority 2021, published 2024)

Columns and labels:
[1] = target: T1, PFKL (Homo sapiens, UniProt P17858); assay: In situ gel-based ABPP, blockade of TH211 probe labeling in HEK293T cells; type: cell-based; settings: then 25 μM TH211 2 h; for probinding activity (blockade of TH211 probe labeling), protein at ˜80 molecular weight: HEK293T cells in situ, 1 μM compound 1 h
T1 construct: endogenous in cells; host or cells: HEK293T
T1 sequence (P17858 1-780): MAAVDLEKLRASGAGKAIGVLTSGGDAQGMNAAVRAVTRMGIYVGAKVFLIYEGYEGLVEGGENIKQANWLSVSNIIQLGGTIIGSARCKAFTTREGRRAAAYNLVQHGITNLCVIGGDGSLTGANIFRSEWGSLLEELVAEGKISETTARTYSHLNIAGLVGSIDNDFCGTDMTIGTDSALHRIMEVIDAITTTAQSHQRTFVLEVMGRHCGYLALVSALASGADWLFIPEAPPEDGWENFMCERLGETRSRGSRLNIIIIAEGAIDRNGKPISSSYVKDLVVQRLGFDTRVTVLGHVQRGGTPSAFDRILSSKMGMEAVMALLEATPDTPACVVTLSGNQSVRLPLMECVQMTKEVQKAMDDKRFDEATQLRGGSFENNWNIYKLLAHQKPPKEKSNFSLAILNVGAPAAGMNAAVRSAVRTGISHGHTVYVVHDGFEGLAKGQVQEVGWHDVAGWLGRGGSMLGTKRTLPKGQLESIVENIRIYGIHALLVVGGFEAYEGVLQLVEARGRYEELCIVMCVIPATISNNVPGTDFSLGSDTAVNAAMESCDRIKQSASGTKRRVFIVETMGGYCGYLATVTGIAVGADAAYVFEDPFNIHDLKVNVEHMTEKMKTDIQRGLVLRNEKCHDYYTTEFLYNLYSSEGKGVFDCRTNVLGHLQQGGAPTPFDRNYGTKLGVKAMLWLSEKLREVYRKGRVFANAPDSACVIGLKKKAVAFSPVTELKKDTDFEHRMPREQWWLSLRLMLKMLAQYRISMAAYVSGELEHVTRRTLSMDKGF
Protocol: HEK293T cells were incubated in 10 cm petri dishes with DMEM medium supplemented with 10% fetal bovine serum and 1% L-glutamine until the confluency reached about 90%. Aspirate the medium and then add serum-free-medium (SFM) with vehicle only (DMSO) or SuTEx compounds in DMSO, which afforded final concentrations of 0.1% DMSO. After incubation at 37° C. for 1 hrs in CO2 incubator, the medium was aspirated and 25 μM of probe TH211 in SFM was added. After incubation at 37° C. for 2 hrs, the medium was aspirated and the cells were washed off in cold PBS. Centrifuge at 400×g for 5 min to pellet and resuspend pellet again in PBS for 2× total washes. The cell pellets were resuspended and lysed by sonication (1 sec pulse, 20% amplitude, 3 times) in PBS in the presence of EDTA-free protease inhibitor cocktail tablet (Pierce Biotechnology, Waltham, Massachusetts, United States of America). The cell lysates were subject to ultracentrifugation (100,000×g, 45 min at 4° C.) to separate the cytosolic fraction in the supernatant and the membrane fraction as a pellet. Protein concentrations in soluble fraction were measured by the Bio-Rad DC protein assay (Bio-Rad Laboratories, Hercules, California, United States of America). Proteome aliquots (2 mg/mL, 50 μL) were conjugated with fluorophore which was accomplished by copper-catalyzed azide-alkyne cycloaddition (CuAAC) with rhodamine-azide (TAMRA-azide, 1.25 mM, 1 μL, final concentration of 25 μM) in the presence of tris(2-carboxyethyl)phosphine (TCEP, 50 mM fresh in water, 1 μL, final concentration of 1 mM), tris[(1-benzyl-1H-1,2,3-triazol-4-yl)methyl]amine (TBTA, 1.7 mM in 4:1 t-butanol/DMSO, 3 μL, final concentration of 100 μM) and CuSO4 (50 mM, 1 μL, final concentration of 1 mM). After 1 hr incubation at room temperature, reactions were quenched by adding 4×SDS-PAGE loading buffer and beta-mercaptoethanol (17 μL) and samples were resolved by SDS-PAGE followed by in-gel fluorescence scanning.
(§1) Some SuTEx analogues with RF001 fragment were synthesized and characterized. The in situ competition assay was then conducted, during which HEK293T cells were treated with 1 μM of a SuTEx analogue for 1 h, followed by treatment with 25 μM of TH211 as the probe for 2 h. […] The analogues with electron-donating groups like methyl or methoxy on the para position of phenyl performed better than those with electron-withdrawing groups. Under the same condition, the IC5o of TH220 was determined as 305.6 nM. The identity of the bound protein was studied by LC-MS/MS. The assay results indicated PFKL as the potential target and that binding sites include Y674 and K677, since the ratio trends are the same as that found in the in situ competition assay. To study selective targeting of PFKL by the series of SuTEx analogues, Fag-PFKL, Flag-PFKM, and Flag-PFKP were overexpressed in HEK293T cells and in vitro competition assays were performed for comparison. […] To optimize these SuTEx ligands, another series of derivatives were synthesized and evaluated with TH233 as a negative control and TH220 as positive control, respectively. […] Compared to TH220, the probinding activity of XJ-2-103 with trifluoromethyl group at para position of the phenyl ring is not as good, which is consistent with the results shown in FIG. 18A.

[2] = target: T1, PFKL; assay: SILAC competitive chemical proteomic assay (TH211 probe, LC-MS/MS); type: cell-based; settings: HEK293T in situ, vehicle (light) vs inhibitor 2 μM (heavy) 1 hr, then TH211 50 μM 2 h; protein/site not given
Protocol: The light and heavy proteomes (2.3 mg/mL, 432 μL) prepared from HEK293T cells that were pretreated in situ with vehicle (DMSO) or the inhibitor (2 μM), respectively, at 37° C. for 1 hr followed by probe TH211 treatment (50 μM) for 2 h, were directly were subjected to click reaction with the desthiobiotin-PEG3-azide (10 mM in DMSO, 10 μL, final concentration 200 μM) in the presence of TCEP (50 mM, 10 μL), TBTA (1.7 mM, 33 μL) and CuSO4 (50 mM, 10 μL) at room temperature for 1 hr. The light and the heavy samples were mixed in the chloroform-methanol extraction step. The subsequent steps including reduction with dithiothreitol, alkylation with iodoacetamide, digestion with Trypsin/Lys-C, enrichment with avidin beads were conducted as previously described^26.
as §1

[3] = HPLC solution reactivity of probe with p-cresol (tyrosine mimetic); type: physicochemical; settings: UV 254 nm, TMG base, 0° C., longest time point tested 90 min
Protocol: (§2) Briefly, reaction progress of KY-26 or XO44 with p-cresol or n-butylamine (16.5 μmol, 3.3 eq.) in the presence of TMG base (1,1,3,3-tetramethylguanidine, 1.1 eq) was evaluated by monitoring probe consumption and quantified based on the signal from the caffeine standard using HPLC. Synthetic peptide reactions were conducted by mixing the peptide (Ac-RLNERHYGGLTGLNK-NH2, 50 nmol, 1.0 eq.) with 1.1 eq of TMG. KY-26 (550 nmol, 11.0 eq) was added to the mixture and the reaction was kept at 37° C. until the reaction achieved at least 50% conversion.
(§3) More particularly, an acetonitrile solution of p-cresol or n-butylamine (16.5 μmol, 3.3 eq.) was mixed with 1.1 eq of TMG. KY-26 or XO44 in ACN:DMF=6:4 (5 μmol, 1.0 eq.) was added to the mixture and the reaction was kept at 0° C. The final molarity for KY-26 or XO44 is 10 mM. Aliquots (50 μl) of the reaction were taken and quenched by adding acetic acid (0.5 M final, 5.0 μmol) and caffeine standard (0.05 M final, 0.5 μmol) at ten-minute intervals for 1.5 hrs. 1.0 μL sample was injected and analyzed by reverse-phase HPLC with mobile phases A (H2O, 0.1% AcOH) and B (CH3CN, 0.1% AcOH) with a gradient of 0-15-85-100% B in 0-0.5-6.5-7 min. UV measurements taken at 254 nm. Reaction progress was evaluated by monitoring KY-26 or XO44 consumption and quantified based on the signal from the caffeine standard. […]

[4] = HPLC solution reactivity of probe with n-butylamine (lysine mimetic); type: physicochemical; settings: TMG base, 0° C., KY-26 compared with p-cresol
Protocol: as §2, §3

Row | probinding activity (blockade of TH211 probe labeling), protein at ˜80 molecular weight [1] | SILAC ratios (SR) from competitive chemical proteomic assay [2] | Structure (SMILES) | other results
1 | good probinding activity |  | O=S(=O)(c1ccc2c(c1)OC(F)(F)O2)n1cc(CCN2CCC(=C(c3ccc(F)cc3)c3ccc(F)cc3)CC2)nn1 [XJ-2-115, 4-(Bis(4-fluorophenyl)methylene)-1-(2-(1-((2,2-difluorobenzo[d][1,3]dioxol-5-yl)sulfonyl)-1H-1,2,3-triazol-4-yl)ethyl)piperidine] | 
2 |  | 2.48 | O=S(=O)(c1ccc(F)cc1)n1cc(CCN2CCC(=C(c3ccc(F)cc3)c3ccc(F)cc3)CC2)nn1 [TH221, 4-(Bis(4-fluorophenyl)methylene)-1-(2-(1-((4-fluorophenyl)sulfonyl)-1H-1,2,3-triazol-4-yl)ethyl)piperidine] | 
3 |  |  | C#CCNC(=O)c1cc(Nc2cc(C3CC3)[nH]n2)nc(N2CCN(Cc3ccc(S(=O)(=O)F)cc3)CC2)n1 [XO44, reference compound] | time to near-complete depletion of probe in reaction with p-cresol [3]: > 90 min; reaction of probe with n-butylamine [4]: minimal reaction
4 | good probinding activity |  | O=S(=O)(c1ccc2c(c1)OCCO2)n1cc(CCN2CCC(=C(c3ccc(F)cc3)c3ccc(F)cc3)CC2)nn1 [XJ-2-77, 4-(Bis(4-fluorophenyl)methylene)-1-(2-(1-((2,3-dihydrobenzo[b][1,4]dioxin-6-yl)sulfonyl-)-1H-1,2,3-triazol-4-yl)ethyl)piperidine] | 
5 |  | 1.04 | Cc1ccc(S(=O)(=O)n2cc(CCN3CCN(C(c4ccc(F)cc4)c4ccc(F)cc4)CC3)nn2)cc1 [TH208, 1-(Bis(4-fluorophenyl)methyl)-4-(2-(1-tosyl-1H-1,2,3-triazol-4-yl)ethyl)piperazine] | 
6 | good probinding activity |  | O=S(=O)(c1ccc2c(c1)OCO2)n1cc(CCN2CCC(=C(c3ccc(F)cc3)c3ccc(F)cc3)CC2)nn1 [XJ-2-87] | 
7 |  | 8.41 | COc1ccc(S(=O)(=O)n2cc(CCN3CCC(=C(c4ccc(F)cc4)c4ccc(F)cc4)CC3)nn2)cc1 | IC50 ([1]; HEK293T cells, compound 1 h, read-out: IC50 against PFKL, in situ TH211 chemical proteomic assay): 306 nM
8 |  | 0.95 | O=S(=O)(C1CC1)n1cc(CCN2CCC(=C(c3ccc(F)cc3)c3ccc(F)cc3)CC2)nn1 [TH223, 4-(bis(4-fluorophenyl)methylene)-1-(2-(1-(cyclopropylsulfonyl)-1H-1,2,3-triazol-4-yl)ethyl)piperidine] | 
9 | good probinding activity |  | COc1ccccc1S(=O)(=O)n1cc(CCN2CCC(=C(c3ccc(F)cc3)c3ccc(F)cc3)CC2)nn1 [XJ-2-141, 4-(Bis(4-fluorophenyl)methylene)-1-(2-(1-((2-methoxyphenyl)sulfonyl)-1H-1,2,3-triazol-4-yl)ethyl)piperidine] | 
